{"source": "patent US12006321B2", "about": "“Substituted pyrazolo[1,5-a]pyrimidines as apelin receptor agonists” (Sanford Burnham Prebys Medical Discovery Institute, priority 2017, dated 2024)", "data": [{"target": "T1, human apelin receptor (APJ, APLNR) (Homo sapiens, UniProt P35414)", "T1 construct": "host or cells: Chinese hamster ovary (CHO) cells, stably integrated receptor", "T1 sequence (P35414 1-380)": "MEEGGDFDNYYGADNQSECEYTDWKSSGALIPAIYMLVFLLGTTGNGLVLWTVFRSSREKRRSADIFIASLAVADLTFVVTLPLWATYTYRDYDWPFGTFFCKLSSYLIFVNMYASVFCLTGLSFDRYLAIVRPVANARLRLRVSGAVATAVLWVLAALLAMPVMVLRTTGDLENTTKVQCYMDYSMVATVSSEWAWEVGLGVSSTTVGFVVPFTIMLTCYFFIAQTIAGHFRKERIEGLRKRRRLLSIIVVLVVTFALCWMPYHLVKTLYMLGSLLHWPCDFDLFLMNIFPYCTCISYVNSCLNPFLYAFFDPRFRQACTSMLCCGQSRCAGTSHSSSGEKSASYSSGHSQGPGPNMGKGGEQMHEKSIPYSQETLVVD", "experiment": "cell-based cAMP assay (TR-FRET) in Chinese hamster ovary cells expressing the apelin receptor", "settings": "EC50 = 50% of control (apelin-13, 1 nM) response; cAMP in CHO cells, 0.5 h incubation; read-out: Potency Category", "experimental": "This example illustrates the biological activity of various compounds tested against the APJ receptor.\nCommercially available cell lines were used to screen chemical libraries to identify compounds that potently and selectively activated the human apelin receptor. The assays disclosed herein were performed using cell lines from DiscoveX, Inc.\nBiological activity was determined to the cell-based assay. This assay detects activation of the receptor by reporting on intracellular cyclic adenosine monophosphate (cAMP) level. Chinese hamster ovary cells engineered to express the stably integrated human appellant receptor (APJ, AGTRL-one, APLNR), pleaded into the wells of the microtiter plate. Cells were stimulated with […] to increase intracellular cyclic AMP. Immediately following, compounds were added to the range of final concentrations 0.0-100 μM, in DMSO (not to exceed a final DMSO concentration greater than 1% v/v), and allowed to incubate with the cells for 0.5 h. At the end of the incubation, cells were lysed to stop APJ signaling and cAMP was quantified using a commercially available competitive immunoassay kit that applies homogenous time-resolved florescence energy transfer (TR-FRET). The assay is based on the competition between a europium (Eu) chelate-labeled cAMP donor tracer and cellular cAMP for binding sites on a cAMP-specific monoclonal antibody labeled with an acceptor fluorophore. When antibodies are bound to the cAMP tracer light emissions at 320 nm stimulate the energy transfer from the donor to the acceptor, which in turn emits light at 665 nm. In the presence of competitive unlabeled cAMP (derived from the activity of the receptor or forskolin-stimulated production of cAMP), the labelled cAMP tracer is dissociated from the cAMP antibody, resulting in a loss of FRET signal. The amount of light emitted by the FRET is inversely proportional to the cAMP generated by the cell/receptor system. Potency and efficacy at APJ are reported in reference to the canonical APJ receptor agonist apelin-13 when tested at 1 nM.\nCompound competency is reported as the effective concentration required to effect 50% (EC 50) of the control (apelin—13, 1 nM) response in micromole are (μM) units. Compound efficacy (% response) is reported as a percentage of the maximal apein-13 response at 1 nM (control). Potencies were calculated by fitting a four-point logistic curve to concentration response consisting of at least 10 discrete data points spanning effective range of the compounds in the cell-based assay that measures cAMP. In Table 1, the Potency Categories are A, B, C and D. Category A EC50>500 nM; Category B 200<EC50<500 nM; Category C 100<EC50<200 nM; Category D<100 nM.", "units": {"EC50": "nM"}, "values": [{"compound": "CCOC(=O)c1cc(C(C)C)n2nc(C(=O)N(C)C)c(-c3c(C)cccc3C)c2n1", "note": "[Compound 100, ethyl 2-(N,N-dimethylcarbamoyl)-3-(2,6-dimethylphenyl)-7-(methylethyl)-8-hydropyrazolo[1,5-a]pyrimidine-5-carboxylate]", "EC50": "> 500"}, {"compound": "CC(C)c1cc(C(=O)O)nc2c(-c3ccccc3)cnn12", "note": "[Compound 7, 7-(methylethyl)-3-phenyl-8-hydropyrazolo[1,5-a]pyrimidine-5-carboxylic acid]", "EC50": "> 500"}, {"compound": "CC(=O)Nc1cc(C(C)C)n2nc(C)c(-c3c(C)cccc3C)c2n1", "note": "[Compound 111, N-[3-(2,6-dimethylphenyl)-2-methyl-7-(methylethyl)-8-hydropyrazolo[1,5-a]pyrimidin-5-yl]acetamide]", "EC50": "> 500"}, {"compound": "Cc1cccc(C)c1-c1c(C)nn2c(-c3ccco3)cc(C(=O)O)nc12", "note": "[Compound 156, 3-(2,6-dimethylphenyl)-7-(2-furyl)-2-methyl-8-hydropyrazolo[1,5-a]pyrimidine-5-carboxylic acid]", "EC50": "> 500"}, {"compound": "COc1cccc(OC)c1-c1c(C)nn2c(C(C)C)cc(C(=O)O)nc12", "note": "[Compound 42, 3-(2,6-dimethoxyphenyl)-2-methyl-7-(methylethyl)-8-hydropyrazolo[1,5-a]pyrimidine-5-carboxylic acid]", "EC50": "> 500"}, {"compound": "COc1ccccc1-c1c(C)nn2c(C(C)C)cc(C(=O)O)nc12", "note": "[Compound 31, 3-(2-methoxyphenyl)-2-methyl-7-(methylethyl)-8-hydropyrazolo[1,5-a]pyrimidine-5-carboxylic acid]", "EC50": "> 500"}, {"compound": "COCc1nn2c(C(C)C)cc(C(=O)OC)nc2c1-c1c(C)cccc1C", "note": "[Compound 88, methyl 3-(2,6-dimethylphenyl)-2-(methoxymethyl)-7-(methylethyl)-8-hydropyrazolo[1,5-a]pyrimidine-5-carboxylate]", "EC50": "> 500"}, {"compound": "Cc1nn2c(C(C)C)cc(C(=O)O)nc2c1-c1cccc(F)c1", "note": "[Compound 26, 3-(3-fluorophenyl)-2-methyl-7-(methylethyl)-8-hydropyrazolo[1,5-a]pyrimidine-5-carboxylic acid]", "EC50": "> 500"}, {"compound": "Cc1cccc(C)c1-c1c(C2CC2)nn2c(C(C)C)cc(C(=O)O)nc12", "note": "[Compound 84, 3-(2,6-dimethylphenyl)-2-cyclopropyl-7-(methylethyl)-8-hydropyrazolo[1,5-a]pyrimidine-5-carboxylic acid]", "EC50": "> 500"}, {"compound": "COC(=O)c1cc(Nc2ccc(Cl)cc2)n2nc(C)c(-c3c(C)cccc3C)c2n1", "note": "[Compound 133, methyl 3-(2,6-dimethylphenyl)-7-[(4-chlorophenyl)amino]-2-methyl-8-hydropyrazolo[1,5-a]pyrimidine-5-carboxylate]", "EC50": "> 500"}, {"compound": "CCOC(=O)c1cc(C(C)C)n2nc(C)c(-c3cccc(C)c3)c2n1", "note": "[Compound 27, ethyl 2-methyl-7-(methylethyl)-3-(3-methylphenyl)-8-hydropyrazolo[1,5-a]pyrimidine-5-carboxylate]", "EC50": "> 500"}, {"compound": "Cc1cccc(C)c1-c1c(C)nn2c(Nc3ccc(C(F)(F)F)cc3)cc(C(=O)O)nc12", "note": "[Compound 143, 3-(2,6-dimethylphenyl)-2-methyl-7-{[4-(trifluoromethyl)phenyl]amino}-8-hydropyrazolo[1,5-a]pyrimidine-5-carboxylic acid]", "EC50": "> 500"}, {"compound": "Cc1cccc(C)c1-c1c(CO)nn2c(C(C)C)cc(C(=O)O)nc12", "note": "[Compound 87, 3-(2,6-dimethylphenyl)-2-(hydroxymethyl)-7-(methylethyl)-8-hydropyrazolo[1,5-a]pyrimidine-5-carboxylic acid]", "EC50": "> 500"}, {"compound": "Cc1cccc(C)c1-c1c(C)nn2c(N(C)c3ccc(F)cc3)cc(C(=O)O)nc12", "note": "[Compound 151, 3-(2,6-dimethylphenyl)-7-[(4-fluorophenyl)methylamino]-2-methyl-8-hydropyrazolo[1,5-a]pyrimidine-5-carboxylic acid]", "EC50": "> 500"}, {"compound": "COc1ccc(-c2c(C)nn3c(C(C)C)cc(C(=O)O)nc23)cc1", "note": "[Compound 9, 3-(4-methoxyphenyl)-2-methyl-7-(methylethyl)-8-hydropyrazolo[1,5-a]pyrimidine-5-carboxylic acid]", "EC50": "> 500"}, {"compound": "CCOC(=O)c1cc(C(C)C)n2nc(C)c(-c3c(Cl)cccc3Cl)c2n1", "note": "[Compound 114, ethyl 3-(2,6-dichlorophenyl)-2-methyl-7-(methylethyl)-8-hydropyrazolo[1,5-a]pyrimidine-5-carboxylate]", "EC50": "> 500"}, {"compound": "COCc1nn2c(C(C)C)cc(C(=O)O)nc2c1-c1c(C)cccc1C", "note": "[Compound 89, 3-(2,6-dimethylphenyl)-2-(methoxymethyl)-7-(methylethyl)-8-hydropyrazolo[1,5-a]pyrimidine-5-carboxylic acid]", "EC50": "> 500"}, {"compound": "Cc1cccc(C)c1-c1c(C)nn2c(Nc3ccc(C#N)cc3)cc(C(=O)O)nc12", "note": "[Compound 145, 3-(2,6-dimethylphenyl)-7-[(4-cyanophenyl)amino]-2-methyl-8-hydropyrazolo[1,5-a]pyrimidine-5-carboxylic acid]", "EC50": "> 500"}, {"compound": "Cc1cccc(C)c1-c1c(C)nn2c(C3=CCCCC3)cc(C(=O)O)nc12", "note": "[Compound 154, 3-(2,6-dimethylphenyl)-7-cyclohex-1-enyl-2-methyl-8-hydropyrazolo[1,5-a]pyrimidine-5-carboxylic acid]", "EC50": "> 500"}, {"compound": "CCOC(=O)c1cc(C(C)C)n2nc(C)c(-c3c(C)cccc3Cl)c2n1", "note": "[Compound 94, ethyl 3-(6-chloro-2-methylphenyl)-2-methyl-7-(methylethyl)-8-hydropyrazolo[1,5-a]pyrimidine-5-carboxylate]", "EC50": "> 500"}, {"compound": "CCc1nn2c(C(C)C)cc(C(=O)O)nc2c1-c1c(C)cccc1C", "note": "[Compound 74, 3-(2,6-dimethylphenyl)-2-ethyl-7-(methylethyl)-8-hydropyrazolo[1,5-a]pyrimidine-5-carboxylic acid]", "EC50": "> 500"}, {"compound": "Cc1cccc(C)c1-c1c(-c2ccccc2)nn2c(C(C)C)cc(C(=O)O)nc12", "note": "[Compound 79, 3-(2,6-dimethylphenyl)-7-(methylethyl)-2-phenyl-8-hydropyrazolo[1,5-a]pyrimidine-5-carboxylic acid]", "EC50": "> 500"}, {"compound": "Cc1cccc(C)c1-c1c(C)nn2c(Nc3ccc(Cl)cc3)cc(C(=O)O)nc12", "note": "[Compound 140, 3-(2,6-dimethylphenyl)-7-[(4-chlorophenyl)amino]-2-methyl-8-hydropyrazolo[1,5-a]pyrimidine-5-carboxylic acid]", "EC50": "> 500"}, {"compound": "Cc1cccc(C)c1-c1c(C)nn2c(Nc3ccccc3)cc(C(=O)O)nc12", "note": "[Compound 118, 3-(2,6-dimethylphenyl)-2-methyl-7-(phenylamino)-8-hydropyrazolo[1,5-a]pyrimidine-5-carboxylic acid]", "EC50": "> 500"}, {"compound": "Cc1cccc(C)c1-c1c(C)nn2c(-c3ccncc3)cc(C(=O)O)nc12", "note": "[Compound 126, 3-(2,6-dimethylphenyl)-2-methyl-7-(4-pyridyl)-8-hydropyrazolo[1,5-a]pyrimidine-5-carboxylic acid]", "EC50": "> 500"}, {"compound": "COc1cc(C)c(-c2c(C)nn3c(C(C)C)cc(C(=O)O)nc23)c(C)c1", "note": "[Compound 48, 3-(4-methoxy-2,6-dimethylphenyl)-2-methyl-7-(methylethyl)-8-hydropyrazolo[1,5-a]pyrimidine-5-carboxylic acid]", "EC50": "> 500"}, {"compound": "Cc1nn2c(C(C)(C)C)cc(C(=O)O)nc2c1-c1ccccc1", "note": "[Compound 2, 7-(tert-butyl)-2-methyl-3-phenyl-8-hydropyrazolo[1,5-a]pyrimidine-5-carboxylic acid]", "EC50": "> 500"}, {"compound": "Cc1cccc(C)c1-c1c(C)nn2c(C(C)C)cc(C(=O)C(F)(F)F)nc12", "note": "[Compound 64, 1-[3-(2,6-dimethylphenyl)-2-methyl-7-(methylethyl)(8-hydropyrazolo[1,5-a]pyrimidin-5-yl)]-2,2,2-trifluoroethan-1-one]", "EC50": "> 500"}, {"compound": "COC(=O)c1cc(N2CCCC2)n2nc(C)c(-c3c(C)cccc3C)c2n1", "note": "[Compound 122, methyl 3-(2,6-dimethylphenyl)-2-methyl-7-pyrrolidinyl-8-hydropyrazolo[1,5-a]pyrimidine-5-carboxylate]", "EC50": "> 500"}]}]}
